Data: patent US10501741B2, “Methods and compositions for inhibiting growth and epithelial to mesenchymal transition (EMT) in cancer cells” (Cold Spring Harbor Laboratory, priority 2014, dated 2019)
Entries after “also recorded” stand apart in the source; their conditions may differ.

Tests used:
E-cadherin = E-cadherin mRNA upon H2O2 treatment (SYBR-green real-time RT-PCR); type: cell-based
Procedure: (§1) FIG. 7A presents Western blot analysis of A549 cells ectopically expressing p53Ψ upon transfection with two independent siRNA targeting cyclophilin D (CypD). […] Data represent expression levels compared to actin (mean±SD, n=6; p<0.0001, Student's t-test) as measured by SYBR-green-based real-time RT-PCR. […] Cell motility was measured in a standard wound healing experiment. […] Each bar represents the average of four individual wounds. […] Data represent relative expression compared to the vector control (mean±SD, n=6; p<0.0001, Student's t-test). […] Cells were treated for 5 days with 10 mM NAC. FIG. 7F presents a schematic of a proposed mechanism of the p53Ψ-induced EMT. Upon acute oxidative stress, p53FL was previously shown to interact with CypD and trigger necrotic cell death by opening mPTP pore (left panel).
(§2) To determine whether CypD and ROS have a causative role in EMT mediated by p53Ψ, CypD and ROS levels were modulated in cells ectopically expressing p53Ψ (A549, MCF7, H1299) and their effects on expression of EMT markers and cell invasion were assessed.

[1] = tested on: A549 cells expressing p53Ψ; assay: epistasis experiment: CypD silencing and NAC, E-cadherin Western blot; type: cell-based, human
Procedure: (§3) Data shown represent relative expression compared to ectopic expression of a vector control (mean±SD, n=6; p<0.0001, Student's t-test). […] Cells were also treated with 10 mM NAC for 5 days. The cell extracts were probed for E-cadherin, p53, CypD, and as a control GAPDH. […] Cells were treated with 10 mM NAC or 500 μM Tempol for 5 days, then extracts were probed for E-cadherin, p53 and GAPDH as indicated. […] Cells were grown in the presence or absence of NAC (10 mM). After 5 days, the invasive potential of cells was determined using a standard Matrigel invasion assay. Filter chambers were coated with 40 μl Matrigel and invasion was assessed after 30 hours.
To exclude the possibility that ROS-induced EMT was independent of CypD in p53Ψ-expressing cells, epistasis experiments were performed. Specifically, E-cadherin expression was measured upon manipulation of ROS levels (e.g. by NAC treatment) in cells ectopically expressing p53Ψ in the presence and absence of CypD (FIG. 13B). If CypD and p53Ψ act on parallel pathways, an additive effect of CypD silencing and ROS inhibition would be predicted. In contrast, if p53Ψ acts solely through CypD, then CypD silencing would be sufficient to reduce ROS levels and no additive effect would be observed. […] This in turn is necessary and sufficient for p53Ψ-induced EMT (FIG. 7F, right panel).

[2] = tested on: A549 cells ectopically expressing p53Ψ; assay: E-cadherin expression with ROS scavengers; type: cell-based, human; conditions: 10 mM NAC or 500 μM Tempol for 5 days
Procedure: as §1
Data shown represent relative expression compared to ectopic expression of a vector control (mean±SD, n=6; p<0.0001, Student's t-test). […] After 5 days, the invasive potential of cells was determined using a standard Matrigel invasion assay. Filter chambers were coated with 40 μl Matrigel and invasion was assessed after 30 hours.
as §2

[3] = tested on: A549 cells ectopically expressing p53Ψ; assay: Matrigel invasion assay; type: cell-based, human; conditions: NAC 10 mM, 5 days, invasion assessed after 30 hours
Procedure: as §3, §2

[4] = tested on: mitochondrial permeability transition pore (mPTP) in A549 cells expressing p53Ψ; assay: calcein AM assay of mPTP permeability; type: cell-based, human; conditions: ionomycin 50 nM, control; all experimental settings
Excerpt: In this assay, cells are loaded with Calcein (acetomethylester) together with its quencher Cobalt ions. Calcein freely diffuses throughout the cell including into the mitochondrial matrix. But the Cobalt quencher cannot diffuse across the inner mitochondrial membrane, therefore quenching Calcein fluorescence everywhere except in the mitochondrial matrix. Thus, Calcein fluorescence comes only from the matrix. Only upon PTP opening will Cobalt ions gain access to the matrix and quench Calcein, resulting in a sharp drop of mitochondrial fluorescence, which can be measured by FACS or microscopy (FIG. 6B).

[5] = tested on: cells ectopically expressing p53Ψ (A549, MCF7, H1299); assay: EMT induction by p53Ψ upon modulation of CypD; type: cell-based, human
Procedure: as §2

[6] = tested on: A549 cells ectopically expressing p53Ψ; assay: wound healing (cell motility) assay; type: cell-based, human; conditions: 2 mM CsA for 5 days, closure at 48 hours
Procedure: as §1, §2

[7] = tested on: MCF7 cells ectopically expressing p53Ψ; assay: real-time PCR of EMT markers in MCF7 cells; type: cell-based, human; conditions: CsA 2 mM for 5 days
[8] = tested on: H1299 cells ectopically expressing p53Ψ; assay: qRT-PCR of EMT markers in H1299 cells; type: cell-based, human; conditions: 2 mM CsA for 5 days
[9] = tested on: A549 cells expressing p53Ψ; assay: MitoSOX staining of mitochondrial superoxide; type: cell-based, human; conditions: MitoSOX 1 μM
Procedure: FIG. 6A presents Western blot analysis of mitochondrial fractions of A549 cells ectopically expressing p53Ψ. The fractions were immunoprecipitated with a CypD-specific antibody and probed with a p53 N-terminal antibody, or CypD and Smurf1 antibodies as controls. […] FIG. 6B depicts a schematic of the calcein AM assay. […] The fluorescence was detected by laser confocal microscopy after 15 minutes. Non-mitochondrial calcein fluorescence was quenched by co-treatment with CoCl2. Treatment with the ionophore ionomycin (50 nM) was used as a control. […] FIG. 6D presents the % decrease in calcein fluorescence upon quenching of cytosolic calcein with CoCl2 in three independent experiments. The median calcein fluorescence was assessed by FACS. Calcein was loaded at 10 nM and detected after 15 minutes at 515 nm upon excitation with Red HeNe at 495 nm. Treatment with ionomycin was used as a control to estimate basal fluorescence. FIG. 6E presents representative fluorescence microscopy images of A549 cells loaded with MitoSOX (1 μM). Images show the fluorescence upon excitation at 390 nm, mainly from the hydroxyethidium derivative. DAPI was used as a counterstain. FIG. 6F presents the quantification of the MitoSox-positive fractions in three independent FACS experiments from FIG. 6E. […]

HOP62 cells = assay: p53Ψ silencing in HOP62 cells (morphology, qRT-PCR of EMT markers); type: cell-based, human
Excerpt: Representative micrographs are presented showing cells 4 days after transfection with a mixture of two independent siRNA oligonucleotides targeting p53. […] No difference in Snail expression was observed. Data shown represent relative expression levels compared to actin (mean±SD, n=6; p<0.0001, Student's t-test) as measured by SYBR-green-based real-time RT-PCR. […] Level of expression of p53FL and p53Ψ in MCF7 are provided in FIGS. 11B and 10E, respectively. FIG. 4D presents qRT-PCR analysis of the canonical EMT markers E-cadherin (ECAD) and vimentin (VIM) as well as the EMT master regulators Snail, Slug, Twist, and Zeb1, in H1299 cells ectopically expressing p53Ψ or p53FL. Data shown represent relative expression levels compared to actin (mean±SD, n=6; p<0.0001, Student's t-test) as measured by SYBR-green-based real-time RT-PCR. FIG. 4E depicts the percent wound closure at the indicated time points in a 2D monolayer of A549 cells expressing p53Ψ, p53FL, or vector control. […] Filter chambers were coated with 40 μl Matrigel, and invasion was assessed after 30 hours. TGF-β treated cells were used as a positive control.
Somatic alterations of the p53 tumor suppressor gene located on chromosome 17p often occur in cancers and are associated with poor prognosis. In these tumors, p53 mutations disable p53-mediated inhibition of proliferation and promotion of apoptosis in response to stress. In addition, missense p53 mutations may have gain-of-function activities that lead to an increased metastatic spread. […] To test this hypothesis p53Ψ expression was silenced in HOP62 cells. These mesenchymal cells are homozygous for the c.673−2A to G mutation and inherently express exclusively a p53Ψ-like isoform (FIG. 2I and FIG. 9O). […] Cells in which p53Ψ expression was silenced lost the elongated appearance typical of mesenchymal-like cells and instead acquired a cobblestone morphology characteristic of epithelial cells (FIG. 4A).

## OO [H2O2]
E-cadherin; low doses of H2O2
  cell viability: without compromising cell viability
E-cadherin; low doses of H2O2 for 5 days
  expression of E-cadherin: decreased the expression of E-cadherin

## CC(=O)N[C@@H](CS)C(=O)O [NAC, N-acetyl cysteine]
[1]; CypD siRNA, 10 mM NAC for 5 days
  E-cadherin expression in cells in which CypD was silenced: did not increase E-cadherin expression
[2]
  expression of E-cadherin: augmented expression of E-cadherin
[3]
  invasive capabilities (Matrigel invasion): decreased invasive capabilities; also recorded: sufficient to decrease the invasion capabilities

## CC1(C)CC(O)CC(C)(C)N1[O] [Tempol]
[2]
  expression of E-cadherin: augmented expression of E-cadherin
[3]
  invasive capabilities (Matrigel invasion): decreased invasive capabilities

## C[C@H](CCC(=O)O)C[C@H](C)C[C@H](C)C(=O)/C=C(\O)[C@H](C)C[C@H](C)C/C=C/[C@@H](C)[C@@H](O)[C@@H](C)[C@@H](O)C[C@@H]1CC[C@@](C)([C@H]2CC[C@@](C)([C@@H](C)O)O2)O1 [ionomycin]
[4]
  mitochondria calcein fluorescence: rapid loss of mitochondria calcein fluorescence

## CypD siRNA: siRNA AGGCAGATGTCGTCCCAAA (SEQ ID NO:10); CGACTTCACCAACCACAAT (SEQ ID NO:11), from Invitrogen (listed as DNA, chemistry not given here)
[5]
  EMT in cells expressing p53Ψ: sufficient to prevent EMT
[1]; CypD silenced
  p53Ψ-induced EMT: blocked p53Ψ-induced EMT

## cyclosporin A [CsA]
[5]
  EMT in cells expressing p53Ψ: sufficient to prevent EMT
[6]
  cell motility (wound healing): diminish cell motility
[7]
  expression of E-cadherin (real-time PCR): restore expression of E-cadherin to levels similar to parental cells
  expression of EMT markers (real-time PCR): reduce expression of EMT markers
[8]
  expression of E-cadherin (qRT-PCR): restore expression of E-cadherin to a level similar to that observed in control cells
  expression of EMT markers (qRT-PCR): reduce expression of EMT markers
[9]
  MitoSOX fluorescence (mitochondrial superoxide): decreased

## p53 siRNA: siRNA GGGTTAGTTTACAATCAGC (SEQ ID NO:5); GGTGAACCTTAGTACCTAA (SEQ ID NO:6), from Invitrogen (listed as DNA, chemistry not given here)
HOP62 cells; 4 days after transfection with two siRNA targeting p53
  cell morphology: loss of mesenchymal-like features and the acquisition of an epithelial morphology
HOP62 cells; p53 siRNA
  Snail expression: No difference
HOP62 cells; p53Ψ knockdown
  expression of E-cadherin: increased expression of E-cadherin
  expression of vimentin, Zeb1, Twist and Slug: diminished expression
